From patent US12358897B2, “Compounds and method of treating COVID-19” (Pfizer Inc., priority 2020, dated 2025)

How the values were obtained:
[1] = tested on: SARS-CoV-2 (USA_WA1/2020) in VeroE6 cells enriched for hACE2 expression; test: microbe, parasite or virus in culture; type: cell-based; conditions: Severe acute respiratory syndrome coronavirus 2, Vero C1008, 72 h, read-out: Geometric Mean EC50
[2] = molecular target: T1, full-length SARS-CoV-2 3CL protease (Severe acute respiratory syndrome coronavirus 2, UniProt P0DTD1); test: SARS-CoV-2 Coronavirus 3C Protease FRET Assay (Dabcyl-KTSAVLQ-SGFRKME-Edans substrate); type: biochemical; conditions: 15 nM enzyme, 25 μM peptide substrate, 60 minutes at 23° C.; Morrison equation fit; read-out: Geometric Mean Ki
T1 construct: measures the activity of full-length SARS-CoV-2 3CL protease

| Structure (SMILES) | EC50 [1] [nM] | Ki [2] [nM] |
| --- | --- | --- |
| COc1cccc2[nH]c(C(=O)N[C@@H](CC(C)C)C(=O)N[C@@H](C[C@@H]3CCNC3=O)C(=O)COC(=O)C3CCCCC3)cc12 [Example 12, (3S)-3-({N-[(4-methoxy-1H-indol-2-yl)carbonyl]-L-leucyl}amino)-2-oxo-4-[(3S)-2-oxopyrrolidin-3-yl]butyl cyclohexanecarboxylate] | 109 | 73.8 |
| COc1cccc2[nH]c(C(=O)N[C@@H](CC(C)C)C(=O)N[C@@H](C[C@@H]3CCNC3=O)C(=O)COC(=O)c3c(C)cc(C#N)cc3C)cc12 [Example 65, (3S)-3-({N-[(4-methoxy-1H-indol-2-yl)carbonyl]-L-leucyl}amino)-2-oxo-4-[(3S)-2-oxopyrrolidin-3-yl]butyl 4-cyano-2,6-dimethylbenzoate] | 51.3 | 7.67 |
| COc1cccc2[nH]c(C(=O)N[C@@H](CC(C)C)C(=O)N[C@@H](C[C@@H]3CCNC3=O)C(=O)COC(=O)c3c(C)ncnc3C)cc12 [Example 71, (3S)-3-({N-[(4-methoxy-1H-indol-2-yl)carbonyl]-L-leucyl}amino)-2-oxo-4-[(3S)-2-oxopyrrolidin-3-yl]butyl 4,6-di methylpyrimidine-5-carboxylate] | 315 | 0.928 |
| COc1cccc2[nH]c(C(=O)N[C@@H](CC(C)C)C(=O)N[C@@H](C[C@@H]3CCNC3=O)C(=O)COC(=O)C3(C)CCC3)cc12 [Example 14, (3S)-3-({N-[(4-methoxy-1H-indol-2-yl)carbonyl]-L-leucyl}amino)-2-oxo-4-[(3S)-2-oxopyrrolidin-3-yl]butyl 1-methylcyclobutanecarboxylate] | 505 | 348 |
| COc1cccc2[nH]c(C(=O)N[C@@H](CC(C)C)C(=O)N[C@@H](C[C@@H]3CCNC3=O)C(=O)COC(=O)c3c(C)cccc3Cl)cc12 [Example 67, (3S)-3-({N-[(4-methoxy-1H-indol-2-yl)carbonyl]-L-leucyl}amino)-2-oxo-4-[(3S)-2-oxopyrrolidin-3-yl]butyl 2-chloro-6-methyl benzoate] | 163 | 8.82 |
| COc1cccc2[nH]c(C(=O)N[C@@H](CC(C)C)C(=O)N[C@@H](C[C@@H]3CCNC3=O)C(=O)COC(=O)c3ccccc3CN(C)C)cc12 [Example 53, (3S)-3-({N-[(4-methoxy-1H-indol-2-yl)carbonyl]-L-leucyl}amino)-2-oxo-4-[(3S)-2-oxopyrrolidin-3-yl]butyl 2-[(dimethylamino)methyl]benzoate] | 538 | 14 |
| COc1cccc2[nH]c(C(=O)N[C@@H](CC(C)C)C(=O)N[C@@H](C[C@@H]3CCNC3=O)C(=O)COC(=O)C(C)C)cc12 [Example 10, (3S)-3-({N-[(4-methoxy-1H-indol-2-yl)carbonyl]-L-leucyl}amino)-2-oxo-4-[(3S)-2-oxopyrrolidin-3-yl]butyl 2-methylpropanoate] | 205 | 63.7 |
| COc1cccc2[nH]c(C(=O)N[C@@H](CC(C)C)C(=O)N[C@@H](C[C@@H]3CCNC3=O)C(=O)COC(=O)c3c(C)nc(C)nc3C)cc12 [Example 70, (3S)-3-({N-[(4-methoxy-1H-indol-2-yl)carbonyl]-L-leucyl}amino)-2-oxo-4-[(3S)-2-oxopyrrolidin-3-yl]butyl 2,4,6-trimethylpyrimidine-5-carboxylate] | 4800 | 5.89 |
